Data from ChEMBL document CHEMBL3120118, “Evaluation of 1,2,5-thiadiazoles as modulators of M₁/M₅ muscarinic receptor subtypes” (Bioorg Med Chem, 2014).
Activity calls are given as the source filed them. No cut-off for these calls is given here.

Assays:
[1] = Solubility of the compound in 50% DMSO; format: physicochemical
[2] = target: T1, Muscarinic acetylcholine receptor M1 (Homo sapiens) (UniProt P11229); assay: Stimulation of human muscarinic M1 receptor expressed in mouse A9 L cells at 1 to 100 uM after 1 hr by topcount analysis; format: cell-based; details: A9L
T1 sequence (whole entry): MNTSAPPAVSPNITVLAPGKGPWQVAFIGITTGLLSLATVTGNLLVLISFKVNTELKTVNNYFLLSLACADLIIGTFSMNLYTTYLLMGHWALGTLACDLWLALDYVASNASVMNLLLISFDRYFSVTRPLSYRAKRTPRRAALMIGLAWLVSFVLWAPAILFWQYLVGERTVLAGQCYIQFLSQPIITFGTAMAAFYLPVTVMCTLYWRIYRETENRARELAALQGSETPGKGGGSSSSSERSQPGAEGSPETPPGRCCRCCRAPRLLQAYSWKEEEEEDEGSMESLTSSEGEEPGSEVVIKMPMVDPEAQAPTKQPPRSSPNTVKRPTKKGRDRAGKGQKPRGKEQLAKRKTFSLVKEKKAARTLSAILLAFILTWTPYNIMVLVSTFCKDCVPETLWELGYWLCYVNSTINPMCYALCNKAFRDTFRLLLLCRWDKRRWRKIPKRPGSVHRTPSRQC

[3] = target: T2, Muscarinic acetylcholine receptor M5 (Homo sapiens) (UniProt P08912); assay: Modulation of human muscarinic M5 receptor expressed in mouse A9 L cells assessed as inhibition of carbachol-induced phosphoinositide metabolism at 100 uM after 1 hr by topcount analysis; format: cell-based; details: A9L
T2 sequence (whole entry): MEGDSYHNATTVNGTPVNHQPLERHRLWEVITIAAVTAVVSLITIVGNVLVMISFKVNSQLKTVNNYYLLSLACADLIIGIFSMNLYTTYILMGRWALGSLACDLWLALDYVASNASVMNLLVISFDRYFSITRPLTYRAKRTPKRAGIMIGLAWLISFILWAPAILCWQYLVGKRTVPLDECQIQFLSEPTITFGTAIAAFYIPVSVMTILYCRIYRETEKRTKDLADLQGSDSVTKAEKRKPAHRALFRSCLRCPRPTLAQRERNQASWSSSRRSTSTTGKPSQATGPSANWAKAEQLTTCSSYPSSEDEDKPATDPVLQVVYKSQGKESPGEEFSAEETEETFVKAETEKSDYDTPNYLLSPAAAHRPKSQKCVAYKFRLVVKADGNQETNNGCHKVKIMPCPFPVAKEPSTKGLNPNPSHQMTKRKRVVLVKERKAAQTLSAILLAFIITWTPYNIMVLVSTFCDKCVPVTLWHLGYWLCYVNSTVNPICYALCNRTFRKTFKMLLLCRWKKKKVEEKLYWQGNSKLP

[4] = target: T2, Muscarinic acetylcholine receptor M5 (Homo sapiens); assay: Stimulation of human muscarinic M5 receptor expressed in mouse A9 L cells at 1 to 100 uM after 1 hr by topcount analysis; format: cell-based; details: A9L
[5] = target: T1, Muscarinic acetylcholine receptor M1 (Homo sapiens); assay: Modulation of human muscarinic M1 receptor expressed in mouse A9 L cells assessed as inhibition of carbachol-induced phosphoinositide metabolism at 100 uM after 1 hr by topcount analysis; format: cell-based; details: A9L
[6] = target: T2, Muscarinic acetylcholine receptor M5 (Homo sapiens); assay: Modulation of human muscarinic M5 receptor expressed in mouse A9 L cells assessed as effect on carbachol-induced phosphoinositide metabolism at 1 to 100 uM after 1 hr by topcount analysis; format: cell-based; details: A9L
[7] = target: T1, Muscarinic acetylcholine receptor M1 (Homo sapiens); assay: Modulation of human muscarinic M1 receptor expressed in mouse A9 L cells assessed as effect on carbachol-induced phosphoinositide metabolism at 1 to 100 uM after 1 hr by topcount analysis; format: cell-based; details: A9L
[8] = target: T1, Muscarinic acetylcholine receptor M1 (Homo sapiens); assay: Modulation of human muscarinic M1 receptor expressed in mouse A9 L cells assessed as effect on carbachol-induced phosphoinositide metabolism at 1 uM by Schild plot analysis; format: cell-based; details: A9L
[9] = target: T2, Muscarinic acetylcholine receptor M5 (Homo sapiens); assay: Modulation of human muscarinic M5 receptor expressed in mouse A9 L cells assessed as competitive inhibition of carbachol-induced phosphoinositide metabolism by Schild plot analysis; format: cell-based; details: A9L
[10] = target: T2, Muscarinic acetylcholine receptor M5 (Homo sapiens); assay: Modulation of human muscarinic M5 receptor expressed in mouse A9 L cells assessed as inhibition of carbachol-induced phosphoinositide metabolism at 1 to 100 uM after 1 hr by topcount analysis; format: cell-based; details: A9L
[11] = target: T1, Muscarinic acetylcholine receptor M1 (Homo sapiens); assay: Modulation of human muscarinic M1 receptor expressed in mouse A9 L cells assessed as effect on carbachol-induced phosphoinositide metabolism at 10 to 300 uM by Schild plot analysis; format: cell-based; details: A9L

| Structure (SMILES) | solubility [1] | Activity [2] | Activity [4] | Activity [6] | Activity [7] | further results |
| --- | --- | --- | --- | --- | --- | --- |
| COc1nsnc1OCCOCCOCCOCCOc1nsnc1OC | Insoluble | – | – | – | – | – |
| COc1nsnc1OCC[N+](C)(C)C | – | inactive | inactive | – | – | inhibition [3]: Active; inhibition [5]: Active |
| COc1nsnc1OCCOCCOCCO | – | inactive | inactive | inactive | inactive | – |
| COc1nsnc1OCCOCCOCCOCCO | – | inactive | inactive | inactive | inactive | – |
| COc1nsnc1OCCO | – | inactive | inactive | inactive | inactive | – |
| COc1nsnc1OCCN(C)C | – | inactive | inactive | – | inactive | Activity [8]: inactive; inhibition [9]: Dose-dependent effect; inhibition [10]: Active; Activity [11]: Active |
| COc1nsnc1OCCOCCOCCOc1nsnc1OC | Insoluble | – | – | – | – | – |
| COc1nsnc1OCCOCCOCc1ccccc1 | Insoluble | – | – | – | – | – |
